Assay results taken from patent US20190240379A1, “NOVEL COMPOSITIONS ACTIVE ON ADIPOCYTES” (BIOXIS PHARMACEUTICALS, priority 2016, published 2019).

Test system: 3T3L1 murine adipocyte line
Method: For example, a 2% (w/w) chitosan preparation obtained in example 1 (DA: 2%, Mw: 450000 g·mol^−1, Bioxis Pharmaceuticals S.A.S.) is diluted in a saline solution (NaCl at 300 mOsmol·l^−1) containing 1% (w/w) of acetic acid in a well (in 24-well plates) and then distributed over half of the other wells, dried, rinsed with PBS and then with the culture medium before cell seeding (3T3L1 murine adipocyte line ATCC CL-173™). When the cells are at confluence, differentiation is induced by adding a differentiation medium. The cells are then treated with a small dose of oleic acid (OA, 2.5 μM) for 6 hours. The cells are put back in a culture medium without OA until the next day in order to avoid any background noise from the OA. Proliferation is analysed by phase contrast microscopy (×20): the images are taken at various times (2 days and 5 days post seeding), at an identical position for each well. […] The marking is observed in fluorescence microscopy and quantification carried out by imaging. The imaging and the fluorescence quantification are carried out on a real-time imaging station. The controls are fixed before the induction of differentiation (confluence, DO).

chitosan
chitosan concentration with toxic effect on the 3T3L1 line: greater than or equal to 2%
morphology of the cells: aggressive or even toxic medium
